Test: Inhibition of SLP76 phosphorylation at Ser376 in human Jurkat cells incubated for 30 mins by HTRF assay

SMILES | IC50 [nM]
CC[C@H](C)n1cnnc1-c1cccc(NC(=O)c2cccc3c2nc(CN)n3C)n1 | 139
CNCc1nc(N(C)C(C)C)cc2c1CN(c1cccc(-c3nnc4n3[C@@H](C)CC4)n1)C2=O [US11684616, Example 210] | 47
CCCn1cnnc1-c1cccc(N2Cc3c(cc(N4CCC[C@H]4C)nc3CNC)C2=O)n1 [US11142525, Example 55] | 34
CC[C@@H](N)c1nc(N2CCC[C@H]2C)cc2c1CN(c1cccc(-c3nncn3CC)n1)C2=O [US11684616, Example 140] | 53
CC[C@H]1CCc2nnc(-c3cccc(N4Cc5c(cc(N(C)C(C)C)nc5CNC)C4=O)n3)n21 [US11684616, Example 201] | 37
CC(C)n1cnnc1-c1cccc(NC(=O)c2cccc3c2OCC(N)C3)n1 (stereo not drawn) | 1080
C[C@@H]1CCCN1c1cc2c(c([C@@H](C)N)n1)CN(c1cccc(-c3nnc4n3[C@@H](C)CC4)n1)C2=O [US11684616, Example 24] | 53
CNCc1nc(N(C)C(C)C)cc2c1CN(c1cccc(-c3nnc4n3[C@@H](CF)CC4)n1)C2=O [US11684616, Example 205] | 52
CNCc1cc(OC)cc2c1CN(c1cccc(-c3nncn3[C@@H](C)CC(F)(F)F)n1)C2=O | 115
CC(C)n1cnnc1-c1cccc(NC(=O)c2cccc3c2nc(CN)n3C)n1 | 1070
CCCn1cnnc1-c1cccc(N2Cc3c(cc(N(C)C(C)C)nc3CNC)C2=O)n1 [US11142525, Example 63] | 87
CNCc1nc(N(C)C)cc2c1CN(c1cccc(-c3nncn3C(C)C)n1)C2=O [US11142525, Example 1] | 112
CCC(C)n1cnnc1-c1cccc(NC(=O)c2cccc3c2OCC(N)C3)n1 (stereo not drawn) | 222
CCCn1c(C)nnc1-c1cccc(N2Cc3c(cc(N(C)C(C)C)nc3CNC)C2=O)n1 [US11142525, Example 64] | 81
CNCc1cc(OC)cc2c1CN(c1cccc(-c3nncn3C(C)C)n1)C2=O | 383
CCCn1cnnc1-c1cccc(N2Cc3c(cc(N(C)C)nc3CNC)C2=O)n1 [US11142525, Example 46] | 121
COc1ccc2c(c1CN)CN(c1cccc(-c3nncn3[C@@H](C)CC(F)(F)F)n1)C2=O | 520
CNCc1nc(N(C)C)cc2c1CN(c1cccc(-c3nncn3[C@@H](C)CC(F)(F)F)n1)C2=O [US11142525, Example 17] | 70

From BindingDB's records for PubMed 39651809 (Pfizer Inc.)
